# Experimental data as given in patent publication US20250143299A1, “METHODS AND COMPOSITIONS FOR CONTROLLING PESTS IN VEGETABLES” (Globachem NV, priority 2022, published 2025).
# Key:
# Assay type in all cases: in vivo
# Aphis fabae = assay: Example 5 pea trial, Aphis fabae (black bean aphid) control; details: appl. AB
# Description: Peas—Aphis fabae (Black bean aphid)
# The trial was conducted on peas, variety Batuta, 4 replicates per plot. A water volume of 200 L water/ha was used for each application. Two applications were made, Application A was made at first infestation and Application B was made 14d later. Each plot at least 12 m^2.
# Insects present at the time of application: at App A 197/20 shoots, at App B in untreated: 443/20 shoots.
# Acyrthosiphon pisum = assay: Example 6 pea trial, Acyrthosiphon pisum (pea aphid) control; details: appl. A
# Text: Peas—Acyrthosiphon pisum (Pea Aphid)
# (§1) Trial conducted on peas, variety Navarro, 4 replicates per plot. Each plot was at least 12 m^2, a water volume of 200 L water per ha was used for the application.
# (§2) Insects present at the time of application A: 106 aphids per 20 shoots. The stage of the crop at application A was BBCH 75-77, and at application B, (14 DAA) BBCH 79-81.
# Pea = assay: Example 6 phytotoxicity, necrosis/burn (PHYNEC) on pea; parameters: scale not given here; details: appl. AB
# Text: as §1, §2
# [1] = tested on: Leptinotarsa decemlineata; assay: Example 8 Trial 2 potato, Leptinotarsa decemlineata (LEPTNDE) control; details: appl. AB
# Text: Trial 2: Potatoes, 4 replicates per plot, each plot at least 25 m^2. A water volume of 200 L water/ha was used for each application. Two applications were made at a 14d interval.
# Application made at the occurrence of the insects. Application A was made at Stage BBCH 39-41, application B was made 14 days later at Stage BBCH 41-44.
# Insects present at the time of application: at App A: 9/10 plants at App B in untreated: 44/10 plants
compound,measurement,setting,value
"CCCCCCCCC(=O)O [PA, pelargonic acid]","COUINS (count of insects), 20 shoots","Aphis fabae; 585 g/ha (0.9 L/ha), 3 DAA",7.66 % UNCK
same,"COUINS (count of insects), 20 shoots","Aphis fabae; 585 g/ha (0.9 L/ha), 3 DAB",32.43 % UNCK
same,"COUINS (count of insects), 20 shoots","Aphis fabae; 585 g/ha (0.9 L/ha), 7 DAA",17.73 % UNCK
same,"COUINS (count of insects), 20 shoots","Aphis fabae; 585 g/ha (0.9 L/ha), 7 DAB",33.74 % UNCK
same,"COUINS (count of insects), 20 shoots","Aphis fabae; 975 g/ha (1.5 L/ha), 3 DAA",9.21 % UNCK
same,"COUINS (count of insects), 20 shoots","Aphis fabae; 975 g/ha (1.5 L/ha), 3 DAB",39.08 % UNCK
same,"COUINS (count of insects), 20 shoots","Aphis fabae; 975 g/ha (1.5 L/ha), 7 DAA",22.27 % UNCK
same,"COUINS (count of insects), 20 shoots","Aphis fabae; 975 g/ha (1.5 L/ha), 7 DAB",51.21 % UNCK
same,"COUINS (count of insects), 20 shoots","Aphis fabae; 1300 g/ha (2.0 L/ha), 3 DAA",44.25 % UNCK
same,"COUINS (count of insects), 20 shoots","Aphis fabae; 1300 g/ha (2.0 L/ha), 3 DAB",65.79 % UNCK
same,"COUINS (count of insects), 20 shoots","Aphis fabae; 1300 g/ha (2.0 L/ha), 7 DAA",63.58 % UNCK
same,"COUINS (count of insects), 20 shoots","Aphis fabae; 1300 g/ha (2.0 L/ha), 7 DAB",65.14 % UNCK
same,"COUINS (count of insects), 20 shoots","Aphis fabae; 2600 g/ha (4.0 L/ha), 3 DAA",72.11 % UNCK
same,"COUINS (count of insects), 20 shoots","Aphis fabae; 2600 g/ha (4.0 L/ha), 3 DAB",76.77 % UNCK
same,"COUINS (count of insects), 20 shoots","Aphis fabae; 2600 g/ha (4.0 L/ha), 7 DAA",82.08 % UNCK
same,"COUINS (count of insects), 20 shoots","Aphis fabae; 2600 g/ha (4.0 L/ha), 7 DAB",76.67 % UNCK
same,"COUINS (count of insects), 20 shoots","Acyrthosiphon pisum; 585 g/ha (0.9 L/ha), 3 DAA (1st column)",31.44 % UNCK
same,"COUINS (count of insects), 20 shoots","Acyrthosiphon pisum; 585 g/ha (0.9 L/ha), 3 DAA (2nd column)",31.34 % UNCK
same,"COUINS (count of insects), 20 shoots","Acyrthosiphon pisum; 585 g/ha (0.9 L/ha), 3 DAA (3rd column)",30.01 % UNCK
same,"COUINS (count of insects), 20 shoots","Acyrthosiphon pisum; 975 g/ha (1.5 L/ha), 3 DAA (1st column)",34.03 % UNCK
same,"COUINS (count of insects), 20 shoots","Acyrthosiphon pisum; 975 g/ha (1.5 L/ha), 3 DAA (2nd column)",33.84 % UNCK
same,"COUINS (count of insects), 20 shoots","Acyrthosiphon pisum; 975 g/ha (1.5 L/ha), 3 DAA (3rd column)",35.76 % UNCK
same,"COUINS (count of insects), 20 shoots","Acyrthosiphon pisum; 1300 g/ha (2.0 L/ha), 3 DAA (1st column)",52.54 % UNCK
same,"COUINS (count of insects), 20 shoots","Acyrthosiphon pisum; 1300 g/ha (2.0 L/ha), 3 DAA (2nd column)",52.47 % UNCK
same,"COUINS (count of insects), 20 shoots","Acyrthosiphon pisum; 1300 g/ha (2.0 L/ha), 3 DAA (3rd column)",53.62 % UNCK
same,"COUINS (count of insects), 20 shoots","Acyrthosiphon pisum; 2600 g/ha (4.0 L/ha), 3 DAA (1st column)",65.75 % UNCK
same,"COUINS (count of insects), 20 shoots","Acyrthosiphon pisum; 2600 g/ha (4.0 L/ha), 3 DAA (2nd column)",65.86 % UNCK
same,"COUINS (count of insects), 20 shoots","Acyrthosiphon pisum; 2600 g/ha (4.0 L/ha), 3 DAA (3rd column)",65.31 % UNCK
same,Phytotoxicity - Necrosis/burn (PHYNEC),"Pea; 585 g/ha (0.9 L/ha), 7 DAA",0
same,Phytotoxicity - Necrosis/burn (PHYNEC),"Pea; 585 g/ha (0.9 L/ha), 14 DAA",0
same,Phytotoxicity - Necrosis/burn (PHYNEC),"Pea; 975 g/ha (1.5 L/ha), 7 DAA",0
same,Phytotoxicity - Necrosis/burn (PHYNEC),"Pea; 975 g/ha (1.5 L/ha), 14 DAA",0
same,Phytotoxicity - Necrosis/burn (PHYNEC),"Pea; 1300 g/ha (2.0 L/ha), 7 DAA",3
same,Phytotoxicity - Necrosis/burn (PHYNEC),"Pea; 1300 g/ha (2.0 L/ha), 14 DAA",3
same,Phytotoxicity - Necrosis/burn (PHYNEC),"Pea; 2600 g/ha (4.0 L/ha), 7 DAA",37.5
same,Phytotoxicity - Necrosis/burn (PHYNEC),"Pea; 2600 g/ha (4.0 L/ha), 14 DAA",37.5
same,COUINS # L1-L3/10 plants,"[1]; 585 g/ha (0.9 L/ha), 7 DAA",51.7 % UNCK
same,COUINS # L4/10 plants,"[1]; 585 g/ha (0.9 L/ha), 7 DAA",45 % UNCK
same,COUINS # L1-L3/10 plants,"[1]; 585 g/ha (0.9 L/ha), 10 DAB",68.6 % UNCK
same,COUINS # L4/10 plants,"[1]; 585 g/ha (0.9 L/ha), 10 DAB",64.2 % UNCK
same,COUINS Adults/10 plants,"[1]; 585 g/ha (0.9 L/ha), 10 DAB",48 % UNCK
same,COUINS # L1-L3/10 plants,"[1]; 975 g/ha (1.5 L/ha), 7 DAA",48.5 % UNCK
same,COUINS # L4/10 plants,"[1]; 975 g/ha (1.5 L/ha), 7 DAA",35 % UNCK
